Consider seven molecules from ChEMBL document CHEMBL3271995, “Antineoplastic agents. 2. Structure-activity studies on N-protected vinyl, 1,2-dibromoethyl, and cyanomethyl esters of several amino acids” (J Med Chem, 1977).

The source made the active and inactive calls. The calls are words filed in the database; no cut-off is given here.

Data set [1] relates to Ehrlich. Kind of data set: Antineoplastic activity against mouse EAC allografted in CF1 mouse assessed as packed cell volume on day 7 measured at 33 mg/kg (reference value: 32.75 +/- 7.87%). The format is functional.
The nature of data set [2]: Acute toxicity in CF1 mouse. It is filed as organism-based. To be noted: in vivo.
In data set [3] the test system is P388. As to the kind of experiment: Antitumor activity against mouse P388 cells allografted in DBA/2 mouse assessed as median survival time of treated versus control mice (T/C) at 20 mg/kg/day, ip. The format is functional. To be noted: route intraperitoneal.
Data set [4] relates to P388. As to the kind of experiment: Antitumor activity against mouse P388 cells allografted in DBA/2 mouse assessed as animal survival days at 20 mg/kg/day, ip. The format is functional. The conditions noted are these: route intraperitoneal.
The subject of data set [5] is Ehrlich. Kind of data set: Antineoplastic activity against mouse EAC allografted in CF1 mouse assessed as ascites volume on day 7 measured at 33 mg/kg (reference value: 4.1 +/- 1.24 mL). It is filed as functional.
The subject of data set [6] is Ehrlich. Kind of data set: Antineoplastic activity against mouse EAC allografted in CF1 mouse assessed as animal survival on day 7 measured at 33 mg/kg. The format is functional, organism-based. Further details: dose 33 mg/kg.
Data set [7] concerns Ehrlich. Kind of data set: Antineoplastic activity against mouse EAC allografted in CF1 mouse assessed as tumor growth inhibition on day 7 measured at 33 mg/kg. The conditions noted are these: 168 h, read-out: TGI. It is filed as functional.
In data set [8] the test system is W256. Kind of data set: Antitumor activity against rat Walker 256 cells allografted in Sprague-Dawley rat assessed as survival time (treated/control) at 2.5 mg/kg/day, ip. The format is functional. The conditions noted are these: route intraperitoneal.
Data set [9] deals with W256. Kind of data set: Antitumor activity against rat Walker 256 cells allografted in Sprague-Dawley rat assessed as animal survival days at 2.5 mg/kg/day, ip. The format is functional. To be noted: route intraperitoneal.

For orientation: LD50 means the dose expected to kill half of the subjects tested. Low readings indicate a more toxic substance, high ones a less toxic substance. What is called T/C is the ratio of treated to control. Take `C#CCOC(=O)[C@H](CC(C)C)NC(=O)OCc1ccccc1`: the values for the Activity in data set [1] and in [5] were 23% and 0.5 mL, respectively. The LD50 in data set [2] is 1650 µmol/kg. Besides, the T/C in [3] was 112%. In [4], the Survival worked out at 9.1 days. Also, the outcome in [6] was Active. The inhibition in vivo at 33 mg/kg in data set [7] turned out to be 85%.

Turning to `C=COC(=O)[C@H](Cc1c[nH]c2ccccc12)NC(=O)OCc1ccccc1`, the Activity turned out to be 14.3% in data set [1] and 1.3 mL in data set [5]. Moreover, the T/C in [8] was determined as 106%. Moreover, the Survival in data set [9] stood at 8 days. The result in data set [6] was Active. For the same molecule, the inhibition in vivo at 33 mg/kg in data set [7] amounted to 87%.

Take `C#CCOC(=O)CCCNC(=O)OCc1ccccc1`: the Activity in data set [1] worked out at 34.5%; in data set [5], 2.3 mL. In addition, the T/C in data set [8] came out at 305%; in data set [3], 83%. The Survival in data set [9] came out at 23 days; in [4] it was 6.7 days. For the same molecule, in data set [6], the outcome was Active. The inhibition in vivo at 33 mg/kg in data set [7] was 20%.

Take `CC(C)C[C@H](NC(=O)OCc1ccccc1)C(=O)OC(Br)CBr` (some centres not stated): the values for the Activity in data set [1] and in data set [5] were 14% and 0.002 mL, respectively. Further, the T/C in data set [8] came to 113%; in data set [3] it was 112%. In addition, the LD50 in data set [2] was found to be 500 µmol/kg. Besides, the Survival is 8.5 days in data set [9] and 9.1 days in data set [4]. For the same molecule, the outcome in data set [6] was Active. In addition, in data set [7], the inhibition in vivo at 33 mg/kg is 99%.

On to `O=C(CCCNC(=O)OCc1ccccc1)OC(Br)CBr` (configuration not stated), for which the Activity in data set [1] was 2%; in data set [5], 0.6 mL. Besides, the values for the T/C in data set [8] and in data set [3] were 226% and 100%, respectively. The Survival came out at 18.1 days in [9] and 8.1 days in data set [4]. For the same molecule, the inhibition in vivo at 33 mg/kg in data set [7] amounted to 98.7%.

Consider `N[C@@H](Cc1ccc(N(CCCl)CCCl)cc1)C(=O)O`, for which the Activity in [1] is 3%; in [5] it was 0.1 mL. The T/C in data set [8] stood at 305%. Also, the Survival in data set [9] was determined as 23 days. The outcome in [6] was Active. For the same molecule, the inhibition in vivo at 33 mg/kg in data set [7] is 99%.

Regarding `O=C(CNC(=O)OCc1ccccc1)OC(Br)CBr` (configuration not stated), the Activity in data set [1] turned out to be 0%; in [5], 0 mL. For the same molecule, the T/C is 135% in data set [8] and 28% in data set [3]. In [2], this molecule registered an LD50 of 370 µmol/kg. Besides, the figures for the Survival in data set [9] and in [4] were 10.1 days and 2.2 days, respectively. In data set [6], the outcome was Active. The inhibition in vivo at 33 mg/kg in [7] worked out at 100%.
